# Test results published in article PMC7862291, “Full-length in meso structure and mechanism of rat kynurenine 3-monooxygenase inhibition” (Communications Biology, 2021).
# Read-outs that look alike come from different tables or passages of the source.
# What was measured:
# [1] = biological target: T1, hKMO (Homo sapiens, UniProt O15229); experiment: Surface plasmon resonance; type: binding; settings: SPR, immobilised hKMO, single-cycle kinetics
# T1 construct: purchased Origene
# Protocol: Surface plasmon resonance experiments were performed using a Biacore 8K+ (GE Healthcare) instrument. A 20-μg/mL concentration of hKMO (Origene) was immobilised on a Series S Sensor Chip CM5 (GE Healthcare) by NHS/EDC amine coupling. The Rmax was 13,500 resonance units (RU) upon binding.
# Five-fold serial dilutions of 50 nM compound 3 finalised in 2% DMSO were made, and run in a buffer containing HBS-P+ (GE Healthcare), 1 mM DTT, and 2% DMSO using single-cycle kinetics.
# Surface plasmon resonance data were analysed using Biacore Insight Evaluation software. All fits used a simple 1:1 Langmuir binding model showing reasonable fit and low fit χ^2 values.
# [2] = Pharmacokinetic (brain penetration) study in rats; type: in vivo; settings: Sprague-Dawley Crl:CD(SD), rat, male SD rats, 10 mg/kg ip, 1 h after a single administration
# Protocol: Brain penetration studies were conducted in non-fasted male SD rats [Sprague-Dawley rats Crl:CD(SD), 8 weeks of age]. Compound 1 was intraperitoneally (ip) administered at 10 mg/kg in a solution of saline containing 10% dimethylformamide, 10% propylene glycol, and 4% 1 normality (N) sodium hydrate. […] Blood and brain were collected at 1 h after a single administration. The test compound in plasma samples or brain samples was extracted by deproteination with acetonitrile, and then analysed using LC-MS/MS.
# T1 sequence (O15229 whole entry): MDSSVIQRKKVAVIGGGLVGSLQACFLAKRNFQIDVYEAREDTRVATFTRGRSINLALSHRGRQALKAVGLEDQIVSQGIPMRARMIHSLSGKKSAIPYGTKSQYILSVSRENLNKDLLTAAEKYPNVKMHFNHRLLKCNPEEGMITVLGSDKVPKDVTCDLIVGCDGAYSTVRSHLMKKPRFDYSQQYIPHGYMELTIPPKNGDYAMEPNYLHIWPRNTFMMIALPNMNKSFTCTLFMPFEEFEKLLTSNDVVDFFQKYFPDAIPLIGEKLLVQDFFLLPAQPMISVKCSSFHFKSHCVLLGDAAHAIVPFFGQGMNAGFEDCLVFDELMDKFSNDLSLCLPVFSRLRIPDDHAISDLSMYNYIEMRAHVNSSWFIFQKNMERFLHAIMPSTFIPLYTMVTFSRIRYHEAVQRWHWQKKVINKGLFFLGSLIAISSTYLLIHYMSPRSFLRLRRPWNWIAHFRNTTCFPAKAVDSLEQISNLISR
Structure (SMILES),Kd [1],koff [1],kon [1],Kp at 1 h ([2]; brain/plasma),"concentration at 1 h ([2]; brain, read-out: Exposure in brain)","concentration at 1 h ([2]; plasma, read-out: Exposure in plasma)"
Cc1cnn(-c2ccc(OCc3ccccc3)c(C(=O)O)c2)c1-c1ccc(Cl)c(F)c1 [Compound 3],0.039 nM,2.1e-05 s⁻¹,540000 M⁻¹ s⁻¹,,,
Cc1cnn(-c2cccc(C(=O)O)c2)c1-c1ccccc1 [Compound 1],,,,0.029,25.4 ng/g,869 ng/mL
